Assay results taken from patent US9290427B2, “Anti-invasive compounds” (Universiteit Gent, priority 2012, dated 2016).

Key:
MCF-7/6 cells [1] = assay: Sulforhodamine B (SRB) test, MCF-7/6; type: cell-based, human
Description: The SRB assay is used to evaluate growth effects on cells, and measures the total protein content. In this test, 5,000 cells are seeded in a cup of a 96-well plate. Upon a 24 h-attachment period, cells are treated with a certain amount of the test molecule (dissolved in DMSO). After a pre-chosen incubation time, cells are fixed with 50 μL of 50% trichloroacetic acid (2° C., 1 h). Afterward, the plate is rinsed five times with tap water, and air dried overnight.
Next, proteins are stained with 75 μL of a 0.4% solution of SRB in AcOH (30 min). Unbound SRB is subsequently removed by washing with a 1% solution of glacial AcOH, whereupon the plate is air dried. Then, bound SRB is redissolved in 100 μL of a 10 mmol·L^−1 tris(hydroxymethyl)aminomethane (Tris) buffer (pH=10.5), after which optical density is determined at 490 nm with a spectrophotometer.
Besides, also an SRB assay was performed. This test is based on the ability of the dye sulforhodamine B (SRB) to bind electrostatically on basic amino acid residues of protein in trichloroacetic acid-fixed cells. Results obtained in the SRB assay are linearly proportional to the amount of cellular protein and thus to the cell number.

MCF-7/6 cells [2] = assay: MTT test, MCF-7/6; type: cell-based, human; details: for decrease in mitochondrial activity: FIG. 5
Description: An MTT test provides an indication of cell viability, proliferation and activity through determination of the mitochondrial conversion of 3-(4,5-dimethylthiazol-2-yl)-2,5-diphenyltetrazolium bromide (MTT), a yellow salt, into formazan, a salt that precipitates under the form of blue crystals.
In concreto, 5,000 cells are seeded in a cup of a 96 well-plate, treated with the desired amount of the test substance, and incubated for a chosen period of time. Next, 40 μL of a filtered (0.2 μm) 5 mg·mL^−1 solution of MTT in PBS is added to the cup. After 2 h of incubation at 37° C. in the dark, all liquid is removed. The obtained formazan salts are dissolved in 200 μL of DMSO, whereupon optical density is measured at 490 nm.
The effects of some chalcone-like compounds on the proliferation of MCF-7/6 cells were investigated. A commonly used method to quantify the metabolic activity of cells and thus to a certain degree cell viability—is the MTT assay. This test provides a measure of mitochondrial activity, as it assesses the reduction of 3-(4,5-dimethylthiazol-2-yl)-2,5-diphenyltetrazolium bromide (MTT), a yellow tetrazole, to the purple formazan; this transformation occurs in the mitochondria of living cells (Mosmann T., 1983).
Thus, the influence of 13 compounds on the mitochondrial activity of MCF-7/6 cells was determined at 3 different concentrations, both after 24 and 48 h of incubation. Assessment of the mitochondrial activity after 192 h of incubation, which would correspond to the duration of the CHI assay, was not possible as the degree of confluence of the cells was too high at that time point.
The antiproliferative effects of 4-fluoro-3′,4′,5′-trimethoxychalcone on MCF-7/6 cells were further assessed in the MTT assay upon prolonged incubation, as this would provide a higher degree of relevance to the CHI assay, which has an 8-day incubation period. As mentioned above, cell confluence was too high after 192 h; therefore, an incubation time of 144 h was considered a good compromise.

[3] = 100 and 10 μmol·L−1, FIG. 6 (72 and 144 h), p<0.01
[4] = elevated concentrations 10-100 μmol·L−1, summary

Compound: COc1cc(C(=O)/C=C/c2ccc(F)cc2)cc(OC)c1OC [Compound 49, (2E)-3-(4-Fluorophenyl)-1-(3,4,5-trimethoxyphenyl)propenone]
- number of cells (MCF-7/6 cells [1]; 1 μmol·L−1, FIG. 6): smaller but still significant reduction
- change in total protein content (MCF-7/6 cells [1]; 10 μmol·L−1, 24 h, decreasing trend, not significant): −10%
- total protein content relative to solvent control (MCF-7/6 cells [1]; [3]): significant reduction
- reduction in total protein content (MCF-7/6 cells [1]; [4]): ~50%
- mitochondrial activity relative to solvent control (MCF-7/6 cells [2]; 0.1 μmol·L−1, FIG. 6): increased significantly
- mitochondrial activity (MCF-7/6 cells [2]; 1 μmol·L−1, 24 h): the same trend, but without significance
- decrease in mitochondrial activity (MCF-7/6 cells [2]; 5 μmol·L−1, 24 h): 35%
- decrease in mitochondrial activity (MCF-7/6 cells [2]; 5 μmol·L−1, 48 h): 25%
- reduction in mitochondrial activity (MCF-7/6 cells [2]; 10 μmol·L−1, 24 h): 40%
- mitochondrial activity relative to solvent control (MCF-7/6 cells [2]; [3]): significant reduction
- reduction in mitochondrial activity (MCF-7/6 cells [2]; [4]): ~50%
